# According to patent US8637522B2, “Pyrazinone derivatives as insulin secretion stimulators, methods for obtaining them and use thereof for the treatment of diabetes” (Merck Patent GmbH, priority 2008, dated 2014):
# Test system: INS-1 cells
# Test: Insulin secretion assay in INS-1 cells (glucose at 4.2 mM)
# Format: cell-based
# Conditions: Rattus norvegicus, INS1, glucose 4.2 mM, compound 10 μM, 1 h incubation, read-out: Insulin secretion, % of ctrl at 10 μM
# Protocol: Culture of Pancreatic INS-1 Cells
# INS-1 cells were cultured in complete medium, RPMI 1640 containing 1 mM sodium pyruvate, 50 μM 2-mercaptoethanol, 2 mM glutamine, 10 mM HEPES, 100 IU/mL penicillin, and 100 μg/mL streptomycin (CM), supplemented with 10 mM glucose, and 10% (vol/vol) heat-inactivated fetal calf serum (FCS), as described by Asfari et al. (Endocrinology 130: 167-178, 1992).
# INS-1 cells were plated and cultured in 48-well plates. After 2 days of culture, the medium was removed and cells were cultured for 24 h with a medium change to 5 mM glucose, 1% FCS. The cells were then washed with Krebs-Ringer Bicarbonate HEPES buffer (KRBH; 135 mM NaCl; 3.6 mM KCl; 5 mM NaHCO3; 0.5 mM NaH2PO4;
# 0.5 mM MgCl2; 1.5 mM CaCl2 and 10 mM HEPES; pH 7.4) 0.1% BSA containing 2.8 mM glucose and preincubated for 30 min at 37° C. in the same buffer. The cells were then washed twice and incubated for 1 h in KRBH 0.1% BSA containing 4.2 mM glucose and different concentrations of the tested molecule. Insulin concentration in the collected supernatants was measured with ELISA using rat insulin antibody (Insulin Rat Elit PLUS, cat. ref 10-1145-01).
# Insulin secretion results are expressed in % of control (glucose 4.2 mM).
# Insulin Secretion in INS-1 Cells (Glucose at 4.2 mM)
row,SMILES,activity at 10 µM [%]
1,"CCn1cc(Cl)nc(S(=O)(=O)CC(=O)N2CCCCC2)c1=O [Example 18-2, 5-chloro-1-ethyl-3-[(2-oxo-2-piperidin-1-ylethyl)sulfonyl]pyrazin-2(1H)-one]",159
2,CCCn1ccnc(S(=O)(=O)CCc2ccc(Cl)cc2)c1=O [Example 10-6],127
3,"CCCn1ccnc(S(=O)(=O)Cc2ccc(F)cc2)c1=O [Example 6-4, 3-[(4-fluorobenzyl)sulfonyl]-1-propylpyrazin-2(1H)-one]",142
4,"CCn1cc(-c2ccc(Cl)cc2)nc(S(=O)(=O)Cc2ccc(Cl)cc2)c1=O [Example 14-2, 3-[(4-chlorobenzyl)sulfonyl]-5-(4-chlorophenyl)-1-ethylpyrazin-2(1H)-one]",181
5,"CCCn1ccnc(S(=O)(=O)Cc2ccc(C)cc2)c1=O [Example 6-3, 3-[(4-methylbenzyl)sulfonyl]-1-propylpyrazin-2(1H)-one]",144
6,"CCn1ccnc(S(=O)(=O)Cc2ccc(Cl)cc2)c1=O [Example 6-2, 3-[(4-chlorobenzyl)sulfonyl]-1-ethylpyrazin-2(1H)-one]",142
7,"CCCn1ccnc(S(=O)(=O)Cc2ccc(Cl)cc2)c1=O [Example 10, 3-[(4-chlorobenzyl)sulfonyl]-1-propylpyrazin-2(1H)-one]",155
8,"CCn1ccnc(S(=O)(=O)Cc2ccccc2)c1=O [Example 6, 3-benzylsulfonyl-1-ethylpyrazin-2(1H)-one]",128
9,"CCCCn1ccnc(S(=O)(=O)Cc2ccccc2F)c1=O [Example 10-3, 1-butyl-3-[(2-fluorobenzyl)sulfonyl]pyrazin-2(1H)-one]",108
10,"CCCCn1ccnc(S(=O)(=O)Cc2ccc(Cl)cc2)c1=O [Example 10-5, 1-butyl-3-[(4-chlorobenzyl)sulfonyl]pyrazin-2(1H)-one]",153
11,"CCCCn1ccnc(S(=O)(=O)Cc2cccc(C(F)(F)F)c2)c1=O [Example 10-4, 1-butyl-3-[(3-trifluoromethylbenzyl)sulfonyl]pyrazin-2(1H)-one]",187
12,"CCn1ccnc(S(=O)(=O)Cc2ccc(Br)cc2)c1=O [Example 6-6, 1-ethyl-3-[(4-bromobenzyl)sulfonyl]pyrazin-2(1H)-one]",164

# Same assay, conditions: Rattus norvegicus, INS1, glucose 4.2 mM, compound 50 μM, 1 h incubation, read-out: Insulin secretion, % of ctrl at 50 μM
row,SMILES,activity at 50 µM [%]
1,"CCn1cc(Cl)nc(S(=O)(=O)CC(=O)N2CCCCC2)c1=O [Example 18-2, 5-chloro-1-ethyl-3-[(2-oxo-2-piperidin-1-ylethyl)sulfonyl]pyrazin-2(1H)-one]",213
2,CCCn1ccnc(S(=O)(=O)CCc2ccc(Cl)cc2)c1=O [Example 10-6],180
3,"CCCn1ccnc(S(=O)(=O)Cc2ccc(F)cc2)c1=O [Example 6-4, 3-[(4-fluorobenzyl)sulfonyl]-1-propylpyrazin-2(1H)-one]",203
4,"CCCn1ccnc(S(=O)(=O)Cc2ccc(C)cc2)c1=O [Example 6-3, 3-[(4-methylbenzyl)sulfonyl]-1-propylpyrazin-2(1H)-one]",207
5,"CCn1ccnc(S(=O)(=O)Cc2ccc(Cl)cc2)c1=O [Example 6-2, 3-[(4-chlorobenzyl)sulfonyl]-1-ethylpyrazin-2(1H)-one]",276
6,"CCCn1ccnc(S(=O)(=O)Cc2ccc(Cl)cc2)c1=O [Example 10, 3-[(4-chlorobenzyl)sulfonyl]-1-propylpyrazin-2(1H)-one]",331
7,"CCn1ccnc(S(=O)(=O)Cc2ccccc2)c1=O [Example 6, 3-benzylsulfonyl-1-ethylpyrazin-2(1H)-one]",184
8,"CCCCn1ccnc(S(=O)(=O)Cc2ccccc2F)c1=O [Example 10-3, 1-butyl-3-[(2-fluorobenzyl)sulfonyl]pyrazin-2(1H)-one]",236
9,"CCCCn1ccnc(S(=O)(=O)Cc2ccc(Cl)cc2)c1=O [Example 10-5, 1-butyl-3-[(4-chlorobenzyl)sulfonyl]pyrazin-2(1H)-one]",261
10,"CCCCn1ccnc(S(=O)(=O)Cc2cccc(C(F)(F)F)c2)c1=O [Example 10-4, 1-butyl-3-[(3-trifluoromethylbenzyl)sulfonyl]pyrazin-2(1H)-one]",272
11,"CCn1ccnc(S(=O)(=O)Cc2ccc(Br)cc2)c1=O [Example 6-6, 1-ethyl-3-[(4-bromobenzyl)sulfonyl]pyrazin-2(1H)-one]",362

# Test system: not given
# Test: not given
# Conditions: not given
row,SMILES,melting point [°C]
1,"CCn1cc(Cl)nc(S(=O)(=O)CC(=O)Nc2ccccc2)c1=O [Example 18, 2-[(6-chloro-4-ethyl-3-oxo-3,4-dihydropyrazin-2-yl)sulfonyl]-N-phenylacetamide]",178 to 180
2,"CCCn1ccnc(S(=O)(=O)Cc2ccc(F)cc2)c1=O [Example 6-4, 3-[(4-fluorobenzyl)sulfonyl]-1-propylpyrazin-2(1H)-one]",123 to 125
3,"CCCn1ccnc(S(=O)(=O)Cc2ccc(C)cc2)c1=O [Example 6-3, 3-[(4-methylbenzyl)sulfonyl]-1-propylpyrazin-2(1H)-one]",128 to 130
4,"CCn1cc(-c2ccccc2)nc(S(=O)(=O)Cc2ccc(Cl)cc2)c1=O [Example 14, 3-[(4-chlorobenzyl)sulfonyl]-1-ethyl-5-phenylpyrazin-2(1H)-one]",146 to 148
5,"CCn1ccnc(S(=O)(=O)Cc2ccc(Cl)cc2)c1=O [Example 6-2, 3-[(4-chlorobenzyl)sulfonyl]-1-ethylpyrazin-2(1H)-one]",115 to 118
6,"CCCn1ccnc(S(=O)(=O)Cc2ccc(Cl)cc2)c1=O [Example 10, 3-[(4-chlorobenzyl)sulfonyl]-1-propylpyrazin-2(1H)-one]",125 to 128
7,"CCn1cc(Br)nc(S(=O)(=O)Cc2ccc(Cl)cc2)c1=O [Example 13, 5-bromo-3-[(4-chlorobenzyl)sulfonyl]-1-ethylpyrazin-2(1H)-one]",145 to 147
8,"CCn1cc(Cl)nc(SCC(=O)Nc2ccccc2)c1=O [Example 17, 2-[(6-chloro-4-ethyl-3-oxo-3,4-dihydropyrazin-2-yl)thio]-N-phenylacetamide]",156 to 158
9,"CCCn1ccnc(S(=O)(=O)Cc2ccccc2)c1=O [Example 6-5, 3-(benzylsulfonyl)-1-propylpyrazin-2(1H)-one]",133 to 135
10,"CCn1ccnc(S(=O)(=O)CCOc2ccc(OC)cc2)c1=O [Example 10-7, 1-ethyl-3-{[2-(4-methoxyphenoxy)ethyl]sulfonyl}pyrazin-2(1H)-one]",100 to 103
11,"CCn1ccnc(S(=O)(=O)Cc2ccc(Br)cc2)c1=O [Example 6-6, 1-ethyl-3-[(4-bromobenzyl)sulfonyl]pyrazin-2(1H)-one]",135 to 138

# Test system: diabetic N0STZ rat islets
# Test: Insulin secretion in diabetic N0STZ rat islets
# Format: cell-based
# Conditions: glucose 2.8 mM, compound 10−4 M, 90 min, mean ± SEM
# Protocol: Insulin Secretion in Diabetic N0STZ Rat Islets. Materials and Methods. Islets Isolation and Treatments.
# 14±3 weeks non-fasted N0STZ (PORTHA et al., 1974) male rats (Charles Rivers-Domaine des Oncins, I'Arbresle, France) were anesthetised with sodium pentobarbital (Nembutal®: 45 mg/kg in 5 ml/kg administered intra peritoneally) and body temperature was maintained with a heat lamp.
# Rat pancreatic islets of Langerhans were isolated from the pancreas of 8 rats by collagenase P (Boehringer, Meylan, France) digestion. Islets were purified by sedimentation in Hanks balanced salt solution [NaCl (137 mM); KCl (5.36 mM); MgSO4, 7H2O (0.81 mM); Na2HPO4, 12H2O (0.34 mM); KH2PO4 (0.44 mM); CaCl2, 2H2O (1.26 mM); NaHCO3 (4.17 mM)] followed by Ficoll gradient separation.
# Islets were then hand-picked under stereoscopic microscope and batches of 3 islets were incubated for 90 minutes at 37° C. with continuous shaking under a humidified condition (95% O2, 5% CO2) in 1 ml of Krebs/Hepes pH 7 solution [NaCl (115 mM), NaHCO3 (24 mM), KCl (5 mM), MgCl2 (1 mM), CaCl2, 2H2O (1 mM), 0.2% of Bovine serum albumin (Fraction V, fatty acid free, Boehringer, Mannheim), 10 mM Hepes] containing the required glucose or compound concentration.
# Compounds were dissolved in DMSO at 2.10-2M stock solutions. They were then diluted at the required concentration in Krebs/Hepes buffer containing the required glucose concentration.
# At the end of incubation, media was collected and insulin levels were measured using ELISA (EUROBIO, Courtaboeuf, France).
# Islets were hand-picked and incubated in the presence of increasing concentrations of compounds in the presence of glucose at 2.8 or 8 mM. At the end of incubation, media was collected and insulin levels were measured using ELISA method. Results are expressed as % of glucose control (2.8 or 8 mM) and represent Means±SEM.
row,SMILES,"Insulin secretion, % of glucose control"
1,"CCCn1ccnc(S(=O)(=O)Cc2ccc(C)cc2)c1=O [Example 6-3, 3-[(4-methylbenzyl)sulfonyl]-1-propylpyrazin-2(1H)-one]",121 ± 7 % of glucose control
2,"CCCn1ccnc(S(=O)(=O)Cc2ccc(Cl)cc2)c1=O [Example 10, 3-[(4-chlorobenzyl)sulfonyl]-1-propylpyrazin-2(1H)-one]",178 ± 7 % of glucose control

# Same assay, conditions: glucose 8 mM, compound 10−4 M, 90 min, mean ± SEM
row,SMILES,"Insulin secretion, % of glucose control"
1,"CCCn1ccnc(S(=O)(=O)Cc2ccc(C)cc2)c1=O [Example 6-3, 3-[(4-methylbenzyl)sulfonyl]-1-propylpyrazin-2(1H)-one]",271 ± 5 % of glucose control
2,"CCCn1ccnc(S(=O)(=O)Cc2ccc(Cl)cc2)c1=O [Example 10, 3-[(4-chlorobenzyl)sulfonyl]-1-propylpyrazin-2(1H)-one]",203 ± 11 % of glucose control

# Same assay, conditions: glucose 8 mM, compound 10−5 M, 90 min, mean ± SEM
row,SMILES,"Insulin secretion, % of glucose control"
1,"CCCn1ccnc(S(=O)(=O)Cc2ccc(C)cc2)c1=O [Example 6-3, 3-[(4-methylbenzyl)sulfonyl]-1-propylpyrazin-2(1H)-one]",131 ± 5 % of glucose control
2,"CCCn1ccnc(S(=O)(=O)Cc2ccc(Cl)cc2)c1=O [Example 10, 3-[(4-chlorobenzyl)sulfonyl]-1-propylpyrazin-2(1H)-one]",133 ± 7 % of glucose control

# Same assay, conditions: glucose 8 mM, compound 10−6 M, 90 min, mean ± SEM
row,SMILES,"Insulin secretion, % of glucose control"
1,"CCCn1ccnc(S(=O)(=O)Cc2ccc(C)cc2)c1=O [Example 6-3, 3-[(4-methylbenzyl)sulfonyl]-1-propylpyrazin-2(1H)-one]",108 ± 5 % of glucose control
2,"CCCn1ccnc(S(=O)(=O)Cc2ccc(Cl)cc2)c1=O [Example 10, 3-[(4-chlorobenzyl)sulfonyl]-1-propylpyrazin-2(1H)-one]",90 ± 4 % of glucose control

# Same assay, conditions: glucose 8 mM, compound 10−7 M, 90 min, mean ± SEM
row,SMILES,"Insulin secretion, % of glucose control"
1,"CCCn1ccnc(S(=O)(=O)Cc2ccc(C)cc2)c1=O [Example 6-3, 3-[(4-methylbenzyl)sulfonyl]-1-propylpyrazin-2(1H)-one]",101 ± 6 % of glucose control
2,"CCCn1ccnc(S(=O)(=O)Cc2ccc(Cl)cc2)c1=O [Example 10, 3-[(4-chlorobenzyl)sulfonyl]-1-propylpyrazin-2(1H)-one]",84 ± 7 % of glucose control
